Source: US20150307614A1, “Enhanced immunological responses” (Duke University, priority 2009, published 2015)

How the values were obtained:
[1] = TMZ-induced lymphopenia in patients with GBM; assay type: in vivo, human; conditions: after the first cycle (150-200 mg/m2/5 d), n=10
Protocol: (§1) It also induces transient, Grade 3 lymphopenia (<500 cells/uL) in 70% of patients with GBM after the first cycle (150-200 mg/m2/5 d) with nadirs occurring 14-21 days after treatment (n=10). TMZ treatment also leads to an increase in the proportion of TRegs in the peripheral blood (unpublished). Despite this, we have been able to induce and maintain potent EGFRvIII-specific humoral and cellular immune responses in patients with GBM receiving TMZ. Thus, we evaluated TMZ for its capacity to induce homeostatic proliferation and to enhance antigen-specific immune responses in a murine model. Markedly elevated levels of antigen-specific T-cells could be achieved and maintained in mice receiving antigen-specific vaccination after TMZ-induced lymphopenia when compared to normal hosts.

OVA-specific T-cells = assay: Antigen-specific vaccination after TMZ-induced lymphopenia in mice, with or without anti-IL-2Rα; assay type: in vivo; conditions: TMZ pre-treatment
Protocol: as §1

human TRegs = assay: Daclizumab on human TRegs in vitro; assay type: cell-based
[2] = test system: newly-diagnosed, EGFRvIII+ GBM
Protocol: In patients with newly-diagnosed, EGFRvIII+ GBM, after resection and radiation/TMZ, patients received CDX-110 vaccinations biweekly×3, then monthly until tumor progression in combination with TMZ (200 mg/m^2×5/28 days). […] The others received saline in a double-blinded fashion.

[3] = after expansion post vaccination

Cn1nnc2c(C(N)=O)ncn2c1=O [TMZ, temozolomide]
patients with transient Grade 3 lymphopenia (<500 cells/uL) [1]: 70% | time of lymphopenia nadirs after treatment [1]: 14 to 21 days | OVA-specific T-cells, frequency of circulating CD8+ T-cells (OVA-specific T-cells; 4 weeks post-vaccination): 21.18% | OVA-specific T-cells, absolute count after vaccination (OVA-specific T-cells; [3]): 42.61 cells/uL | OVA-specific T-cells, frequency of circulating CD8+ T-cells after vaccination (OVA-specific T-cells; [3]): 10.64% | OVA-specific T-cells, absolute count, start of expansion (OVA-specific T-cells; starting count): 3.41 cells/uL blood | OVA-specific T-cells, frequency of circulating CD8+ T-cells, start of expansion (OVA-specific T-cells; starting frequency): 0.40%

daclizumab: commercially available humanized IL-2Rα-specific antibody
effector T-cell function (human TRegs; in vitro): increase | human TRegs (human TRegs; in vitro): reduction | CD4+ T-cell responses (human TRegs; preliminary in vitro studies with human TRegs in the presence of daclizumab): enhancement | OS (overall survival) ([2]; both arms): has not been reached | TTP (time to progression) ([2]; both arms): has not been reached | overall CD8+ or CD4+ T-cell counts ([2]; daclizumab 1 mg/Kg×1, preliminary analysis n=4): without reducing | EGFRvIII-specific immune responses ([2]; daclizumab arm, preliminary analysis n=4, p=0.01 t-test): enhanced | titer of cytotoxic EGFRvIII-specific IgG1 isotype antibodies ([2]; human, in vivo): enhanced | Treg (CD4+CD25+CD45RO+FOXP3+) numbers, change from baseline ([2]; reduction, daclizumab 1 mg/Kg×1 at first vaccine, preliminary analysis n=4, p=0.011 t-test): 82.4±7.1%
